In patent publication US7888319B2, “Compositions and methods for promoting wound healing and tissue regeneration” (MUSC Foundation for Research Development, priority 2004, dated 2011):
Ends that are not written are not given here.

Tests used:
brain penetration injury = experiment: Penetration injury of brain in adult rat with hollow fiber membrane (HFM) implant; format: in vivo
Method: (b) and (c) show low magnification survey views of sections of brain tissue (cortex) surrounding hollow fiber membrane (HFM) implants filled with ACT peptide (100 μM) plus vehicle gel (b) or collagen vehicle gel alone as control (c). In the control tissue (c), a high density of immunolabeled GFAP-positive astrocytes is observed near the site of injury caused by the HFM. The density of these cells appears to diminish slightly distal from the injury. […] Indeed, the levels of GFAP positive cells are not dissimilar to those seen in normal uninjured brain tissue. The regions of tissue within the white rectangles in figures (b) and (c) are shown at higher magnification in (d) and (e) respectively. In the brain injury treated by ACT peptide (d), it can be seen that GFAP-positive astrocytes are not only less numerous, but are also smaller than those seen in the control injury (e).
(a) and (b) show low magnification survey views of sections of brain tissue (cortex) surrounding HFM implants (implant or injury border is shown by arrows) filled with control collagen vehicle gel or ACT peptide plus vehicle gel at 1 week following brain penetration injury. In the control tissue (b), a high density of immunolabeled GFAP-positive astrocytes and a low density of NeuN immunolabeled neurons are observed near the site of injury caused by the HFM. The density of these cells appears to diminish and increase, respectively, distal from the HFM. […] The areas in (a) and (b) proximal to the HFMs are shown at high magnification views in (c) and […], respectively. Again, in the control tissue (d) a striking increase in the density of GFAP-positive astrocytes and a reduced density of NeuN-positive neurons is observed compared to ACT peptide treated tissue (c). A complementary pattern is observed near the HFM containing ACT peptide, with NeuN positive neurons predominating over astrocytes (c).
Anesthetized adult rats were positioned in a stereotaxic apparatus. A midline incision was made on the scalp to expose the skull. A stereotaxic drill was sighted 2 mm posterior to the bregma and 2 holes were drilled with a 1 mm spherical bit, each at 2.5 mm to the right and left of the bregma, and 3.5 mm below the dura. A cerebral lesion was made by inserting an 18-gauge needle. The coordinates were determined from the atlas by Paxinos and Watson (1986). The hollow fiber membrane (HFM) was inserted in the hole and external skin sutures were placed to cover the stab. The ACT peptide was dissolved at 100 μM concentration in a 2% collagen vehicle solution contained within the HFM. […] Reactive astrocytosis associated with inflammation and subsequently with glial scar formation follows a well characterized time course after brain injury in rodent models (Norenberg, 1994; Fawcett and Asher, 1999). […]

[1] = tested on: 5 mm-diameter excisional skin wounds; experiment: Quantitative assessment of wound closure, tissue regeneration and tensile strength of 5 mm excisional skin wounds; format: in vivo, mouse
Text: ACT peptide (n=12) and control (n=8) 5 mm-diameter excisional skin wounds were generated on adult mice as described above. Quantitative assessments of wound closure rate, counts of regenerated hair follicles and tensile strength measurements were then undertaken on the wounded skin at time points up to 90 days following the initial insult. […] Similarly, at 10 days, when most wounds were nearing completion of closure, a highly significant difference was still maintained such that ACT peptide-treated wounds were on average 43% smaller than control wounds. […] Studies were undertaken of the mechanical properties of healed 5 mm diameter excisional wounds at 1 month and 3 months following injury. For mechanical property measurements, the skin samples were obtained after sacrificing the animal and evaluated using a MTS 858 Mini Bionix (MTS Systems Corporation, MN, USA) equipped with a 5 kg load cell. During measurement the skin sample was extended to break at a rate of 0.5 mm/s. Force and extension was measured at break. The tensile strength (stress) and extension to break (strain) was calculated as follows, Stress (N/mm^2)=Force at break (N)/cross-sectional area of sample (mm^2). Strain (%)=[Increase in length at break (mm)/Original length (mm)]×100. Stress and strain calculations for each wounded skin sample was normalized to a normal skin sample from a nearby area collected from the same animal. […] At 3 months, normalized stress to break of peptide-treated wound skin was on average double that of control wounded skin, although the high variance within the treatment group precluded significant mean separation from the control. […] Further, significant improvements in extensibility of peptide-treated wounds were found. […] By contrast, control wounds at 3 months remained only 60% as extensible as normal skin.

[2] = tested on: 5 mm diameter excisional skin wounds; experiment: Small (5 mm) excisional skin wounds in adult mice, ACT 1 to ACT 5; format: in vivo, mouse; conditions: for closure, inflammation, healing and scarring of injuries: 100 μM in pluronic gel, 50-60 μl, applied at 0 and 24 hours, 240 hour time course (10 days), vs gel without peptide; for wound closure rates (area of open wound as % of unclosed wound relative to the control): ~5 mice per condition, Mann-Whitney U-test over the time course
Method: Anesthetized adult mice had 2 small (5 mm diameter) excisional skin wounds made by fine surgical scissors on the neck and (upper) back. The boundaries of the injuries were demarcated by a 5 mm wide circular template cut in a plastic sheet. 50-60 μl of a solution of 20% pluronic gel containing either no (control) or one of the ACT peptides (ACT 2-SEQ ID NO: 1, ACT 1-SEQ ID NO:2, ACT 3-SEQ ID NO:3, ACT 4-SEQ ID NO:4, ACT 5-SEQ ID NO:5) dissolved at concentrations of 100 μM were then applied to the excisional injuries. Control or ACT peptide-containing gel was applied subsequently 24 hours after the initial application. No further applications of control and ACT peptide-containing gel were made after the second application. […] Note that the same wound on the same animal is shown at the different time points during the healing time course. Anesthetized adult mice had 2 small (5 mm diameter) excisional skin wounds made by fine surgical scissors on the neck and (upper) back. The boundaries of the injuries were demarcated by a 5 mm wide circular template cut in a plastic sheet. 50-60 μl of a solution of 30% pluronic gel containing either no (control) or one of the ACT peptides (ACT 2—SEQ ID NO:1, ACT 1—SEQ ID NO:2, ACT 3—SEQ ID NO:3, ACT 4—SEQ ID NO:4, ACT 5—SEQ ID NO:5) dissolved at concentrations of 100 μM were then applied to the excisional injuries. Control or ACT peptide-containing gels were applied subsequently 24 hours after the initial application. No further applications of control and ACT peptide-containing gel were made after the second application. […] Note that the same wound on the same animal is shown at the different time points during the healing time course. The area of open wound was measured during the time course using NIH image according to standard protocols on multiple (˜5 mice per control or treatment condition) adult mice. These individual area measurements were then normalized to (i.e., divided by) the average area measured for the control injuries for a given time point, multiplied by 100 to give a % of unclosed wound relative to the control and then plotted against time. A Mann-Whitney U-test was used to statistically assess the effects of ACT peptides over the time course. […] These treatments provided results with significant p values.

NIH-3T3 cells = experiment: In vitro scratch injury of NIH-3T3 monolayer (repopulation, PCNA immunolabeling); format: cell-based; conditions: 30 μM, 24 hours after scratch
Method: An NIH-3T3 monolayer was pre-treated with ACT 1 peptide (SEQ ID NO:2) for 24 hrs, and “scratch-injured” with a p200 pipette tip. The “scratch injury” was subsequently allowed to “heal” for 24 hours in the presence of (a, b) 30 μM ACT 1 peptide (SEQ ID NO:2), (c, d) 30 μM non-active control peptide (SEQ ID NO: 55), or (e, f) vehicle control solution containing no ACT peptide or control peptide. […] The repopulation of the “scratch injury” occurs in part via migration of the transformed cells crawling into the “scratch injury” area. Figures (b), (d) and (f) show proliferating cell nuclear antigen (PCNA) immunolabeling of cells in the “scratch injury” or at the injury edge.
NIH-3T3 fibroblasts were “scratch injured” and subject to the continuous presence of 30 μM ACT 1 peptide (SEQ ID NO:2) for 24 hours or the control conditions as outlined in FIG. 2. […] The cells have been labeled with fluorescent phalloidin to aid visualization. ACT peptide-treated cells show low levels of repopulation of the scratch injury area (white double headed arrows).
NIH-3T3 cells were grown over 2-3 days until forming a near-confluent monolayer on a tissue culture dish according to standard protocols and the monolayer was then pre-treated with ACT 1 peptide (SEQ ID NO:2) for 24 hrs, and “scratch-injured” with a p200 pipette tip. The “scratch injury” was subsequently allowed to repopulate for 24 hours in the presence of 30 μM ACT 1 peptide (SEQ ID NO:2) dissolved in the culture media (FIG. 2a, b) or in presence of two control conditions (FIG. 2c-f). In the first control condition, the “scratch-injured” cells were allowed to repopulate for 24 hours in the presence of a non-active control peptide (as in FIG. 1) dissolved in the culture media at a concentration of 30 μM (FIG. 2c, d). In the second control condition, phosphate buffered saline (PBS) was added to the culture media and the “scratch-injured” cells were allowed to repopulate in the presence of this vehicle control solution containing no ACT peptide or control peptide (FIG. 2e, f). […] The repopulation of the “scratch injury” occurs in part via migration of the transformed cells crawling into the “scratch injury” area. Figures (FIGS. 2b, d, and f) show proliferating cell nuclear antigen (PCNA) immunolabeling of cells in the “scratch injury” or at the injury edge.
The cells were labeled with fluorescent phalloidin to aid visualization. ACT peptide-treated cells show low levels of repopulation of the scratch injury area (white double headed arrows).

Sequence: ACT peptide: alpha Connexin carboxy-Terminal polypeptide used in brain injury and Example 4 studies; sequence not stated there (RQPKIWFPNRRKPWKKRPRPDDLEI; not fully specified (N-terminus))
- density of GFAP-positive astrocytes adjacent the HFM (brain penetration injury; 100 μM in 2% collagen vehicle within HFM, 1 week after injury, vs collagen vehicle gel): much lower density
- neurons in the process of fission (brain penetration injury; 100 μM in HFM, 1 week, high magnification view, relative to the control): high frequency of neurons in the process of fission
- numbers of NeuN immunolabeled neurons proximal to the HFM (brain penetration injury; 100 μM in HFM, 1 week, vs control): higher numbers
- size of GFAP-positive astrocytes (brain penetration injury; 100 μM in HFM, 1 week, vs control injury): smaller
- strain (extensibility) required to break wounds ([1]; at 1 month, vs control wounds): modestly improved
- strain to break of peptide-treated wound skin, normalized to normal skin ([1]; at 3 months, normalized to normal skin, control wounds 60%): 90%
- normalized stress to break of wound skin ([1]; at 3 months, vs control wounded skin, not significant (high variance)): double
- increase in the number of regenerated hair follicles per unit area of the healed wound over control wounds ([1]; at 10 days): 3.2 fold
- wound size, smaller than control wounds (average) ([1]; at 10 days): 43%
- wound closure relative to control wounds ([1]; within 24 hours of peptide treatment, n=12 vs control n=8): significantly enhanced

Sequence: KARSDDLSV [ACT 5, 9 amino acids of the carboxy terminus of human Cx40]
- closure, inflammation, healing and scarring of injuries [2]: closed faster, were significantly less inflamed in appearance, healed faster and scarred less
- wound closure rates (area of open wound as % of unclosed wound relative to the control) ([2]; 100 μM): significantly improved wound closure rates

Sequence: PSSRASSRASSRPRPDDLEI [ACT 2]
- closure, inflammation, healing and scarring of injuries [2]: closed faster, were significantly less inflamed in appearance, healed faster and scarred less
- wound closure rates (area of open wound as % of unclosed wound relative to the control) ([2]; 100 μM): significantly improved wound closure rates

Sequence: RPRPDDLEV [ACT 3]
- closure, inflammation, healing and scarring of injuries [2]: closed faster, were significantly less inflamed in appearance, healed faster and scarred less
- size of improvement in wound closure over the control, compared among peptides ([2]; 100 μM, over the time course): most pronounced improvements over the control
- wound closure rates (area of open wound as % of unclosed wound relative to the control) ([2]; 100 μM): significantly improved wound closure rates

Sequence: RPRPDDVPV [ACT 4]
- closure, inflammation, healing and scarring of injuries [2]: modest improvement in healing over the control
- wound closure rates (area of open wound as % of unclosed wound relative to the control) ([2]; 100 μM): more modest, although consistent, improvement

Sequence: RQPKIWFPNRRKPWKIELDDPRPR (not fully specified (N-terminus)) [non-active control peptide, reference compound]
- proliferating cell nuclear antigen (PCNA) immunolabeling of cells in the scratch injury or at the injury edge (NIH-3T3 cells): brightly labeled proliferating cells seen
- repopulation of the scratch injury area (NIH-3T3 cells; 24 hrs pre-treatment): large numbers of cells
